Measurements published in patent publication US20110124745A1, “Switchable Anionic Surfactants and Methods of Making and Using Same” (priority 2009, published 2011).
Several values for one entry are separate records, joined by “and”; a condition that tells them apart may be missing. Equal entries are not always repeated.

Tests used:
Assay type in all cases: physicochemical
[1] = Switching efficiency by 1H NMR, method B (DMF internal standard); settings: relative to DMF standard set to 100
Source text: (§1) In both methods, to quantify the concentration of surfactant in solution, its ^1H NMR integration was compared to one of two internal standards of known concentration. In addition to the difference in which internal standard was used, the two methods can also be distinguished from each other on the basis of the timing of the addition of the internal standard. In method A, the standard remains in the solution during the process of switching. In method B, the switching is executed first and the DMF solution of known strength and quantity is added in to the solution.
(§2) In both methods, the surfactant was turned OFF with CO2 by positioning the needle that supplied the CO2 to the surfactant solution above the solution in such a way that the slow flow of CO2 was allowed to interact with the surfactant solution at the surface. The switching from ON to OFF required 5 min or less. Increasing the surface area, for example, by slightly tilting the vial, expedited the switching from ON to OFF. To turn the surfactant ON, the solution was stirred at 70° C. for 40 min as described above. After each ON cycle, 0.5 mL of D2O was added to the solution to compensate for the loss in the volume caused by evaporation.
The surfactant solution was prepared by combining 0.046 g of octyl 4-hydroxy-3-nitrobenzoate and 0.136 g of Na2CO3 in 16.0 mL of D2O. The resultant solution was homogenized by sonication for 2 min. 1.00 mL of this solution was transferred using a Hamilton syringe into thirteen different vials (1, 2, 2*, 3, 4, 5, 6, 7, 8, 9, 10, 11 and 12). Stirring bars were introduced in vials 2* through 12. […] The surfactant in vial 2 was turned OFF by the procedure described above. The solution in vial 2* was turned OFF with CO2 and was then left stirring uncapped at room temperature for 18 h. All the vials (excluding 2*) were tightly capped and left at room temperature for 18 h to confirm the stability of the systems in both the ON/OFF forms upon standing.
The standard solution of DMF was prepared by mixing 0.005 mL of DMF in 8.0 mL of D2O. […] The ^1H NMR spectra of all solutions were recorded. […]

[2] = Solubility observations (aqueous solution, DMSO)
Source text: The following study confirmed that compounds (1A) and (1N) reversibly convert from the neutral form (1N) to the anionic form (1A) and back to the neutral form over and over again with substantially no loss of product. The conversion was verified visually since the neutral form was not soluble in aqueous solution and appeared as a white precipitate in colourless liquid while the anionic form was fully soluble in aqueous solution and appeared as a clear yellow liquid (see FIG. 2). In addition to visual examination, ^1H NMR studies that are described below confirmed the presence of the hydroxyl proton in the spectra of the neutral form.
Since n-octyl 4-hydroxy-3-nitrobenzoate (1N) and the […] salt of (1A) are soluble in DMSO and have some characteristic signals in the ^1H NMR spectrum, […] was used as a solvent to monitor the non-aqueous switchability by NMR spectroscopy.

[3] = Switching efficiency by 1H NMR, method A ([(CH3)4N]I internal standard); settings: relative to (CH3)4NI set to 100
Source text: as §1, §2
The surfactant solution was prepared by combining 0.046 g of octyl 4-hydroxy-3-nitrobenzoate (1N) and 0.136 g of Na2CO3 in 16.0 mL of D2O. To this solution, 11.5 mg of [(CH3)4N]I was added. The resultant solution was homogenized by sonication for 2 min. […] Stirring bars were introduced in vials 3 to 11. […] The surfactant solutions were turned OFF and ON by the procedure described in Example 3.
As the standard, [(CH3)4N]I was added early into the surfactant solution. All the solutions were filtered and the ^1H NMR spectra of all these solutions were recorded. In all cases, the integration of [(CH3)4N]I was set to 100 and compared with the integration of aromatic proton at δ ˜7.3. […] Thus the concentration of the surfactant in these solutions was substantially zero. […] Thus the experimental results established that the surfactant turns ON and OFF with substantially 100% efficiency.

[4] = pH studies of ON and OFF surfactant solutions
Procedure: For pH studies described below, a pH meter (Orion 4 Star Conductivity Benchtop, available from ThermoElectron Corporation, Mass., USA) was used. The pH meter was calibrated before the measurements as per the instructions provided with the pH meter. All solutions were prepared using deionized water. All pH measurements were done at 25° C.
Surfactant solution was prepared by dissolving n-octyl 4-hydroxy-3-nitrobenzoate (0.443 g, 1.502 mmol) and anhydrous Na2CO3 (1.27 g, 12.02 mmol) in 150 mL of deionized water. The resultant solution was homogenized by sonication for 2 min. Aliquots (10.0 mL) of this solution were transferred into eleven different vials numbered as 1, 2, 3, 4, 5, 6, 7, 8, 9, 10, and 11 by Hamilton syringe. The level of the solution in each vial was marked using a marker. Stirring bars were introduced in vials 3 to 11. […] To turn the surfactant OFF, CO2 was slowly bubbled through a solution for 10 min (formation of the OFF form was observed by formation of light yellow solid precipitate). To turn the surfactant ON the solution was heated and stirred while immersed in an oil bath preset at 70° C., for 40 min. The solution in vial 2 was turned OFF. The solution in vial 3 was first turned OFF and then ON. The solution in vial 4 was first turned OFF then ON and finally OFF. After completion of the indicated cycle, each vial was first allowed to cool down to room temperature (if the cycle marked its completion with the surfactant in ON form), the solution was then diluted with deionized water. To be consistent with the previous experiments, all the vials were tightly capped (using […]™) and allowed to stand for 18 h at room temperature (see FIG. 2).

[5] = D2O with Na2CO3, vial 1, control, never switched (ON)

Row | Structure (SMILES) | Proton integration at ~7.3 δ ([1]; filtered solution, vials 2, 4, 6, 8, 10, 12: cycles of Table 1 ending OFF (CO2)) | solubility in DMSO [2] | Proton integration at ~7.3 δ ([3]; filtered D2O solution, vials 2, 4, 6, 8, 10: cycles of Table 1 ending OFF (CO2)) | average pH value of the solutions in the OFF form ([4]; OFF form) | pH of the solution ([4]; vials 2, 4, 6, 8, 10: cycles of Table 1 ending OFF) | Proton integration at ~7.3 δ [1, 5] | Proton integration at ~7.3 δ ([1]; vial 2*: turned OFF with CO2, then stirred uncapped at room temperature) | solubility in aqueous solution (visual) [2] | Proton integration at ~7.3 δ [3, 5] | Proton integration at ~7.3 δ ([3]; D2O with Na2CO3, vials 3, 5, 7, 9, 11: ON/OFF cycles of Table 1 ending ON (70° C., 40 min)) | pH when turned OFF ([4]; 0.01 M compound (1) + 0.08 M Na2CO3, after CO2 bubbling, 25° C.) | pH when turned ON ([4]; 0.01 M compound (1) + 0.08 M Na2CO3, after heating at 70° C. for 40 min, measured at 25° C.) | pH of Original stock solution (ON) ([4]; 0.01 M compound (1) neutral form + 0.08 M Na2CO3 in water, 25° C.) | average pH value of the solution in ON form ([4]; ON form after cycling) | pH of the solution ([4]; vial 1, control, never switched (ON), 1.502 mmol (1N) + 12.02 mmol Na2CO3 in 150 mL water) | pH of the solution ([4]; vials 3, 5, 7, 9, 11: cycles of Table 1 ending ON)
1 | CCCCCCCCOC(=O)c1ccc(O)c([N+](=O)[O-])c1 [compound (1N), octyl 4-hydroxy-3-nitrobenzoate] | 0 | soluble | 0 | 7.73 | 7.88 and 7.70 and 7.89 and 7.35 and 7.83 | – | – | – | – | – | – | – | – | – | – | –
2 | CCCCCCCCOC(=O)c1ccc(O)c([N+](=O)[O-])c1 [compound (1A), 2-nitro-4-(octyloxycarbonyl)phenolate] | – | – | – | – | – | 46 | 45 | fully soluble | 24 | 23 and 24 and 22 and 20 | 8.02 | 8.78 | 10.87 | 9.31 | 10.85 | 9.26 and 9.24 and 9.22 and 9.44 and 9.38
